Measured values as given in patent US7309718B2, “Dibenzocycloheptene compound” (UBE Industries, Ltd., priority 2001, dated 2007).
Read-outs that look alike come from different tables or passages of the source.

Experiments:
[1] = system: Leukotriene D4 (LTD4) induced respiratory constriction; test: Leukotriene D4 induced respiratory constriction test; type: in vivo, guinea pig; conditions: Cavia porcellus, po, read-out: LTD4 inhibitory activity
Experimental: Leukotriene D4 Induced Respiratory Constriction Test
Respiratory constriction was measured by modifying the method of Konzett and Rossler (Arch. Exp. Pathol. Pharmakol., 195, pp. 71-74 (1940)). Hartley male guinea pigs (400 to 500 g body weight, Japan SLC Inc.) were anesthetized with pentobarbital (50 mg/kg, s.c.), and a cannula was inserted into the trachea to carry out artificial ventilation with an artificial ventilator (manufactured by Harvard Apparatus, Model 683). An inner pressure of the respiratory tract was measured by a differential pressure transducer (Nihon Kohden, TP-603T) connected to the respiratory cannula and it is used as an index of respiratory constriction.
LTD4 (0.03, 0.06, 0.13, 0.25, 0.5, 1 and 2 μg/kg, Simga-Aldrich) was intravenously administered from a cannula inserted into the right jugular vein from a low dose with an interval of 5 minutes to cause a respiratory constricttion reaction and an increased amount of a respiratory inner pressure was measured. Test compound was suspended in 0.5% sodium carboxymethyl cellulose aqueous solution or dissolved in 30% propylene glycol aqueous solution, and orally administered 24 hours before administration of LTD4. Animals were fasted for 24 hours before administration of the Test compound. […] LTD4 inhibitory activity=(Dose of Compound administered)/{(ED50 of group to which Compound was added)/(ED50 of control group)-1}

[2] = target: T1, Leukotriene D4 (LTD4) receptor (Cavia porcellus, UniProt Q2NNR5); test: Leukotriene D4 receptor binding test ([3H]LTD4, lung cell membrane fraction); conditions: binding inhibition constant vs 0.2 nM [3H]LTD4, guinea pig lung cell membrane fraction, 25° C. 30 minutes
T1 sequence (Q2NNR5 1-340): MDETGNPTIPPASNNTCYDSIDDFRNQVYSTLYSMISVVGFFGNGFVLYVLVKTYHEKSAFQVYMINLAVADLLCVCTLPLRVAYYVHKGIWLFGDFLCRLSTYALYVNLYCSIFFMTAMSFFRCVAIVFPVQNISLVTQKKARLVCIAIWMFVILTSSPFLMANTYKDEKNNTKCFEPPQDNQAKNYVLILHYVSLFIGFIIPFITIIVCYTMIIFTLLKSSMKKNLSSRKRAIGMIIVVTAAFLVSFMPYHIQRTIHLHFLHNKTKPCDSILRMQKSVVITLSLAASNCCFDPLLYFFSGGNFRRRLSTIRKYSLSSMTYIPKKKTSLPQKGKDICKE
Experimental: Leukotriene D4 Receptor Binding Test
<Preparation of Receptor Sample>
As a receptor sample, a lung cell membrane fraction from guinea pigs was used. […] Lungs of Hartley male guinea pigs (400 to 500 g body weight, Japan SLC Inc.) were isolated, and perfused with a physiological saline, and then, adding 10 mM of PIPES, 10 mM of MgCl2 and 10 mM of CaCl2 buffer (pH 7.5) to the lung tissue and the mixture was homogenized. This homogenate was centrifuged at 70,000×g for 10 minutes to obtain a membrane fraction.
<Leukotriene D4 Receptor Binding Test>
To 0.42 mg of the receptor sample were added 10 mM of PIPES, 10 mM of MgCl2 and 10 mM of CaCl2 buffer (pH 7.5) to make the total amount of 480 μl, and 10 μl of [^3H] LTD4 (NEN Life Science Products Inc.) and 10 μl of a test compound in dimethylsulfoxide were added to the mixture, and the resulting mixture was incubated at 25° C. for 30 minutes. The mixtures thus incubated were filtered through a glass fiber filter (Whatman International Ltd., GF/C) using cell harvester (Biomedical Research & Development Laboratories, Inc., M-30R). The filter paper was washed with 10 mM of Tris and 100 mM of NaCl buffer (pH 7.5), and 5 ml of a liquid scintillator (nacalai tesque inc., clearsol I) was added thereto, and radioactivity was measured by a liquid scintillation analyzer (Packard Instrument Co., 2000CA). When a dissociation constant (Kd) of LTD4 was to be obtained, [^3H] LTD4 with 0.03 to 0.5 nM was used, and 1 μM of non-radioactive LTD4 was added. When a binding inhibition constant (Ki) of the Test compound is to be measured, [^3H] LTD4 with 0.2 nM was used.

[3] = p.o. 24 h before LTD4 i.v., dose of compound shifting the control LTD4 dose-reaction curve two-times to higher dose, anesthetized guinea pigs

Row | Compound | Ki [2] | ED (2-fold shift of LTD4 dose-response) ([1]; 24 h) | also measured
1 | C[C@H](CSC1c2ccccc2C=Cc2ccc(/C=C/c3ccc4cc(F)c(F)cc4n3)cc21)C(=O)[O-].[Na+] (stereo partly shown) | – | – | melting point: 240 to 249 °C
2 | O=C(O)CCSC1c2ccccc2COc2ccc(OCc3ccc4cc(F)c(Cl)cc4n3)cc21 (stereo not shown) [Compound A, 3-[2-(7-chloro-6-fluoroquinolin-2-yl)methoxy-6,11-dihydrobenz[b,e]oxepin-11-yl]thiopropionic acid, reference compound] | – | – | ED (2-fold shift of LTD4 dose-response) [1, 3]: 25.5 µg/kg
3 | O=C([O-])COC1c2ccccc2C=Cc2ccc(/C=C/c3ccc4cc(F)c(F)cc4n3)cc21.[Na+] (stereo not shown) [Example Compound 3, Sodium [3-[(E)-2-(6,7-difluoroquinolin-2-yl)ethenyl]-5H-dibenzo[a,d]cyclohepten-5-yl]oxyacetate] | 0.1 nM | – | ED (2-fold shift of LTD4 dose-response) [1, 3]: 4.71 µg/kg; melting point: 213 to 227 °C
4 | O=C([O-])CCSC1c2ccccc2C=Cc2ccc(/C=C/c3ccc4cc(F)c(F)cc4n3)cc21.[Na+] (stereo not shown) [Example Compound 4, Sodium 3-{[3-[(E)-2-(6,7-difluoroquinolin-2-yl)ethenyl]-5H-dibenzo[a,d]cyclohepten-5-yl]thio}propionate] | 0.2 nM | 1.91 µg/kg | melting point: 213 to 216 °C
5 | O=C([O-])CCSC1c2ccccc2C=Cc2ccc(/C=C/c3ccc4cc(F)c(Cl)cc4n3)cc21.[Na+] (stereo not shown) [Example Compound 7, Sodium 3-{[3-[(E)-2-(7-chloro-6-fluoroquinolin-2-yl)ethenyl]-5H-dibenzo[a,d]cyclohepten-5-yl]thio}propionate] | 0.2 nM | 0.85 µg/kg | melting point: 228 to 238 °C
6 | O=C([O-])CCSC1c2ccccc2C=Cc2ccc(/C=C/c3ccc4ccc(Cl)cc4n3)cc21.[Na+] (stereo not shown) [Example Compound 8, Sodium 3-{[3-[(E)-2-(7-chloroquinolin-2-yl)ethenyl]-5H-dibenzo[a,d]cyclohepten-5-yl]thio}propionate] | – | 5.3 µg/kg | melting point: 193 to 203 °C
7 | O=C(O)CCSC1c2ccccc2C=Cc2ccc(/C=C/c3ccc4c(n3)CCCC4)cc21 (stereo not shown) [Example Compound 9, Sodium 3-{[3-[(E)-2-(5,6,7,8-tetrahydroquinolin-2-yl)ethenyl]-5H-dibenzo[a,d]cyclohepten-5-yl]thio}propionate] | 0.158 nM | – | –
8 | C[C@H](COC1c2ccccc2C=Cc2ccc(/C=C/c3ccc4cc(F)c(F)cc4n3)cc21)C(=O)[O-].[Na+] (stereo partly drawn) [Example Compound 10, Sodium 3-{[3-[(E)-2-(6,7-difluoroquinolin-2-yl)ethenyl]-5H-dibenzo[a,d]cyclohepten-5-yl]oxy}-2-(R)-methyl-propionate] | 0.1 nM | – | ED (2-fold shift of LTD4 dose-response) [1, 3]: 9.93 µg/kg
9 | O=C(O)COC1c2ccccc2C=Cc2ccc(/C=C/c3ccc4cc(F)c(Cl)cc4n3)cc21 (stereo not shown) [Example Compound 11, Sodium [3-[(E)-2-(7-chloro-6-fluoroquinolin-2-yl)ethenyl]-5H-dibenzo[a,d]cyclohepten-5-yl]oxyacetate] | 0.126 nM | – | –
10 | O=C(O)CCOC1c2ccccc2C=Cc2ccc(/C=C/c3ccc4cc(F)c(Cl)cc4n3)cc21 (stereo not shown) [Example Compound 12, Sodium 3-{[3-[(E)-2-(7-chloro-6-fluoroquinolin-2-yl)ethenyl]-5H-dibenzo[a,d]cyclohepten-5-yl]oxy}propionate] | 0.2 nM | – | –
11 | C[C@H](COC1c2ccccc2C=Cc2ccc(/C=C/c3ccc4cc(F)c(Cl)cc4n3)cc21)C(=O)O (stereo partly drawn) [Example Compound 13, Sodium 3-{[3-[(E)-2-(7-chloro-6-fluoroquinolin-2-yl)ethenyl]-5H-dibenzo[a,d]cyclohepten-5-yl]oxy}-2-(R)-methylpropionate] | 0.126 nM | – | –
12 | O=C([O-])CC1CC1CSC1c2ccccc2C=Cc2ccc(/C=C/c3ccc4cc(F)c(Cl)cc4n3)cc21.[Na+] (stereo not shown) [Example Compound 16, Sodium 3-{[3-[(E)-2-(7-chloro-6-fluoroquinolin-2-yl)ethenyl]-5H-dibenzo[a,d]cyclohepten-5-yl]thiomethyl}-cyclopropaneacetate] | – | 0.79 µg/kg | –
13 | O=C(O)COC1c2cc(/C=C/c3ccc4cc(F)c(Cl)cc4n3)ccc2C=Cc2c(F)cccc21 (stereo not shown) [Example Compound 17, Sodium [3-[(E)-2-(7-chloro-6-fluoroquinolin-2-yl)ethenyl]-9-fluoro-5H-dibenzo[a,d]cyclohepten-5-yl]oxy-acetate] | 0.158 nM | – | –
14 | O=C([O-])CCSC1c2cc(/C=C/c3ccc4cc(F)c(Cl)cc4n3)ccc2C=Cc2c(F)cccc21.[Na+] (stereo not shown) [Example Compound 18, Sodium 3-{[3-[(E)-2-(7-chloro-6-fluoroquinolin-2-yl)ethenyl]-9-fluoro-5H-dibenzo[a,d]cyclohepten-5-yl]thio}-propionate] | – | 1.12 µg/kg | –
15 | O=C([O-])COC1c2cc(/C=C/c3ccc4cc(F)c(Cl)cc4n3)ccc2C=Cc2c(Cl)cccc21.[Na+] (stereo not shown) [Example Compound 19, Sodium [3-[(E)-2-(7-chloro-6-fluoroquinolin-2-yl)ethenyl]-9-chloro-5H-dibenzo[a,d]cyclohepten-5-yl]oxy-acetate] | – | – | ED (2-fold shift of LTD4 dose-response) [1, 3]: 2.43 µg/kg
16 | O=C([O-])CCSC1c2cc(/C=C/c3ccc4cc(F)c(Cl)cc4n3)ccc2C=Cc2c(Cl)cccc21.[Na+] (stereo not shown) [Example Compound 20, Sodium 3-{[3-[(E)-2-(7-chloro-6-fluoroquinolin-2-yl)ethenyl]-9-chloro-5H-dibenzo[a,d]cyclohepten-5-yl]thio}-propionate] | – | 0.7 µg/kg | –
17 | O=C([O-])CCSC1c2cc(/C=C/c3ccc4cc(F)c(Cl)cc4n3)ccc2C=Cc2c1cccc2C(F)(F)F.[Na+] (stereo not shown) [Example Compound 28, Sodium 3-{[3-[(E)-2-(7-chloro-6-fluoroquinolin-2-yl)ethenyl]-9-trifluoromethyl-5H-dibenzo[a,d]cyclohepten-5-yl]thio}propionate] | – | 1.7 µg/kg | –
18 | O=C(O)COC1c2ccccc2C=Cc2ccc(/C=C/c3ccc4ccc(Cl)cc4n3)cc21 (stereo not shown) [Example Compound 29, Sodium [3-[(E)-2-(7-chloroquinolin-2-yl)ethenyl]-5H-dibenzo[a,d]cyclohepten-5-yl]oxyacetate] | 0.251 nM | – | –
19 | O=C(O)CCSC1c2cc(/C=C/c3ccc4c(n3)CCCC4)ccc2C=Cc2c1cccc2C(F)(F)F (stereo not shown) [Example Compound 31, Sodium 3-{[3-[(E)-2-(5,6,7,8-tetrahydroquinolin-2-yl)ethenyl]-9-trifluoromethyl-5H-dibenzo[a,d]cyclohepten-5-yl]thio}propionate] | 0.2 nM | – | –
20 | Sodium [3-[(E)-2-(7-chloroquinolin-2-yl)ethenyl]-5H-dibenzo[a,d]cyclohepten-5-yl]thioacetate [Example Compound 30] | – | – | pKi [2]: 9.7
